According to a melting point compilation (Tetko et al.; mined from patent text by program, amines drawn as free bases though some values may be those of a salt):

SMILES	melting point [°C]
COc1cc(-c2nn(C(C)(C)C)c(N)c2C(N)=O)cc(OC)c1OC	180 to 192
COc1cc(-n2nnn(C)c2=O)c(Cl)cc1Cl	80 to 81
C=CCN(CC=C)Cc1nc(-c2ncn3c2[C@@H]2CCN2C(=O)c2cc(F)ccc2-3)no1	100 to 105
COc1cc2c(c(C(C)C)c1OC)CC(C)C(Br)=C2 (configuration not stated)	71 to 72
COc1ccccc1N1CCN(CCn2c(=O)c3cscc3n(C)c2=O)CC1	167 to 168
N#CCCS(=O)(=O)c1ccc(S(=O)(=O)Cl)cc1	124 to 125
CS(=O)(=O)Nn1c(=O)[nH]c2cc([N+](=O)[O-])c(NC3CCCC3)cc2c1=O	146 to 155
CCCN(CCC)C1Cc2cccc3c2n(c(=O)n3C)C1 (configuration not stated)	83 to 85
ClCc1csc(-c2ccc(Cl)c(Cl)c2)n1	93 to 96
Cc1ccc([S@@](C)=O)cc1	75 to 76
N#CN=C(Nc1cnc(Cl)c(N)c1)Oc1ccccc1	219 to 220
CCOC(=O)c1c[nH]nc1NCc1ccccc1	99 to 100
CCCCCCCCCCCCCCOc1cc(OCCCOc2ccc(OCc3ccccc3)cc2)cc(C(=O)O)c1	77 to 79
O=S(=O)(Nc1cc(Cl)cc(Cl)c1)c1cc(S(=O)(=O)Nc2cc(Cl)cc(Cl)c2)c2cc(O)ccc2c1	122 to 124
Cc1nc(CNc2c(C)cccc2C)n[nH]1	125 to 126
CC(=O)Oc1ccc(C=Cc2cc(OC(C)=O)cc(OC(C)=O)c2)cc1	112 to 113
c1ccc(Nc2nc3ccccc3n3cc(-c4ccccc4)cc23)cc1	172
N#CCCCC(=NO)c1ccc(Cl)c(Cl)c1	122 to 123
COc1cc(Nc2nccc(-c3nccs3)n2)cc(OC)c1OC	159
N=C(N)SCCc1ccc(Cl)c(Cl)c1	135 to 139
CC(C)C(=O)N[C@H](CSSC[C@@H](NC(=O)C(C)C)C(=O)O)C(=O)O	135 to 137
CCCCCCCCCCCCCCOc1ccccc1CO	33 to 34

SMILES	melting point [°C]
C=CCN1CC(=O)C(C#N)=C1N	275 to 278
CCCCCCCCCCCCCCOc1ccc(CN(Cc2ccccn2)S(C)(=O)=O)cc1	62 to 63
CSc1cc(C)nc(SC)c1NC(=O)CCCCCCSc1nc2cccc(C(F)(F)F)c2o1	129 to 131
CC(=O)OCCCOc1ccc2nc3c(cc2c1)NCN3	301 to 303
O=C(O)c1cc(Br)cc2c1NCCS2	205 to 206
COC(=O)c1ccccc1S(=O)(=O)NC(=O)Nc1nc(C)c(C)c(C)n1	152 to 161
CCCN1N=C2C(=Cc3cccc(C(F)(F)F)c3)CSCC2C1c1cccc(C(F)(F)F)c1 (configuration not stated)	90 to 93.5
CCNC(=O)c1cnn(C)c1	103 to 106
CC(=O)C(=NO)c1ccc(F)cc1F	126 to 129
CC(C)(O)CNc1c([N+](=O)[O-])cnc2cccnc12	184 to 186
Cc1cc(=O)n(C)c2nc(-c3ccncc3)nn12	195 to 197
FC(F)(F)c1cc(C#CCBr)cc(C(F)(F)F)c1	30 to 31
FC(F)(F)c1cccc(N=C2SCCN2C(=S)Nc2cccc(C(F)(F)F)c2)c1	116 to 117
CCCCC[C@H]1CC[C@H](c2ccc(Br)nn2)CC1	101 to 103
CCNc1nc(C)c(C(=O)OCC)c(N2CCN(C)CC2)c1N	73 to 75
CC(C)C[C@H](NC(=O)CCc1ccccc1)C(=O)O	129 to 130
CC(=O)CS(=O)(=O)c1ccc(O)cc1	118 to 121
NS(=O)(=O)c1ccc(N2CCN(CC3OCCc4ccccc43)CC2)cc1 (racemic)	218
C#CCN1CCc2cc(OC)c(O)c3c2C1Cc1cc(OC)c(OC)cc1-3 (configuration not stated)	135 to 150
CCOC(=O)C(=C(C)N)c1nc(N)c([N+](=O)[O-])nc1Cl	162 to 163
N#CCS(=O)(=O)CC(=O)O	104 to 105

Second part, the compound after the results:

melting point [°C]	SMILES
259 to 262	CS(=O)(=O)NC(=O)c1ccc(Cl)cc1NC(=O)c1cc(-c2ccc(Cl)cc2)oc1C(F)(F)F
210 to 211	Cc1cc(Cn2nnn(-c3ccc(C(F)(F)F)cc3)c2=O)ccc1N
176 to 178	CCN(C(=O)OC)c1cccc(-c2ccc3nnc(C)n3n2)c1
142 to 144	COC(=O)c1ccc(-c2ccc(C#N)cc2)nc1
133 to 145	CC(=O)NC(C(=O)NC1c2cc(C#N)ccc2OC(C)(C)C1O)c1ccccc1 (configuration not stated)
114 to 115	COCCOc1ccc(CCCOc2cc(CCC(=O)O)n(C)n2)c(Oc2ncc(C(F)(F)F)cc2Cl)c1
182	CCCCCCCNC(=O)Nc1ccccc1C(=O)NC1CCN(C(c2ccccc2)c2ccccc2)CC1
150	CCOc1ccc2c(c1)n(-c1ccccc1Cl)c(=O)n2Cc1ccc(NC(=O)N(CC)CC)cc1OC
155 to 156	CC(C)(C)OC(=O)N1CCN(C(=O)c2cc(C(F)(F)F)cc(C(F)(F)F)c2)[C@H](Cc2c[nH]c3ccccc23)C1
257 to 259	O=C1CCC(N2C(=O)c3cccc(NC(=O)c4cccc(C(F)(F)F)c4)c3C2=O)C(=O)N1 (configuration not stated)
269 to 271	CCN(CC)c1ccc2nc3c4ccc(Br)cc4c(=Nc4ccncc4)cc-3oc2c1
156 to 158	CN(CCCc1ccccc1)[C@H]1CC[C@H](c2ccc(O)cc2)CC1
120 to 121	CC1(C)CC(NC(=O)C(O)c2ccccc2)c2cc(C#N)ccc2O1 (configuration not stated)
140 to 142	COC(=O)c1ccc(/C=C/c2c(OC)cc3c(c2OC)C(C)(C)CCC3(C)C)cc1
200 to 202	CCOC(=O)Cc1c(C(=O)O)c(C)c(C(=O)c2ccc(C)cc2)n1C
285 to 288	Cc1ccc(N2C(=O)C(O)=C(C(=O)c3ccc(C(C)C)cc3)C2c2ccc(OC3CC3)cc2)nn1 (configuration not stated)
208 to 210	Cc1cc(-n2cnn(Cc3ccc(S(C)(=O)=O)cc3)c2=O)sc1C(=O)NCc1cccnc1
32 to 34	CCOC(=O)CCC(C)c1ccc(O)cc1 (configuration not stated)
152 to 155	CC(CC(=O)c1ccc(C(N)=S)cc1)C(=O)N1CCC(OCC(=O)OC(C)(C)C)CC1 (racemic)
143 to 144	COC(=O)c1cn(-c2ccc3ccccc3c2)cn1
210	N#CC(c1ccc(O)cc1)c1c(Cl)cc(-n2ncc(=O)[nH]c2=O)cc1Cl (configuration not stated)
109 to 111	CCCCc1nc(Cl)c(COCc2ccccc2C(=O)O)n1Cc1ccc(-c2ccccc2-c2nnn[nH]2)cc1
170	N#Cc1ccccc1-c1ccc(CNc2ccnc3ccnn23)cc1
189	Fc1ccc(-c2nc3ccccn3c2-c2ccnc(-c3ccc(CN4CCOCC4)cc3)c2)cc1Cl
101 to 103	Nc1ncccc1C(=O)NCC1CCN(C[C@H]2COc3cccc(C(F)(F)F)c3O2)CC1
184 to 185	CC(C)(O)CCCc1onc(-c2ccccc2)c1-c1ccc(S(N)(=O)=O)cc1
158 to 160	COc1nc2ccccc2cc1NC(=O)N1CCN(c2cccc3ccccc23)CC1

melting point [°C]	SMILES
160 to 161	CCCc1cnc2c(NC(=O)c3c(Cl)cccc3Cl)cccc2c1-n1ccnc1
80 to 81	Cc1ccn(-c2ccc(Oc3ccc(F)cc3)cc2)n1
123 to 126	O=C1COc2cc(NC(=O)C(=O)N3CCC(Cc4ccccc4)CC3)ccc2N1
200 to 202	CC(C)C1(C)N=C(c2c(C(=O)O)ccc3ccsc23)NC1=O (configuration not stated)
111 to 114	COC(=O)C(C)(C)S(=O)(=O)N1CCC(c2ccc(-c3nccs3)c(C)c2)CC1
128 to 129	COc1cccc(OC2COc3ccc(OCc4ccc5ccccc5n4)cc3C2O)c1 (configuration not stated)
107 to 108	OC(COc1ccc(Cl)cc1)CSCc1ccc(Cl)cc1 (configuration not stated)
76 to 78	O=C(CCc1ccc2ccccc2c1)c1cnc2sc3c(n12)CCCCC3
128 to 129	CCCN1C(=O)OC2(CCN(CC=C(c3ccc(F)cc3)c3ccc(F)cc3)CC2)C1(C)O (configuration not stated)
125 to 127	CC(=O)OC1COc2ccc3ncccc3c2C1 (configuration not stated)
250	CCOc1cc(-c2cc(C(F)F)n3ncc(-c4nc(-c5ccc(N)nc5)no4)c3n2)ccc1C(F)(F)F
84 to 85	CCOC(=O)Cc1nc(-c2ccc(C)cc2)oc1-c1ccco1
96 to 97	COc1cccc(CN2Cc3cc(OC)c(OCc4ccccc4)cc3C(OC)C2)c1 (configuration not stated)
219 to 221	COc1ccc(-c2cc(N(Cc3ccc(OCc4ccccc4)cc3)n3cnnc3)ccc2C#N)cc1
> 250	CN(C)C(=O)CN1CCC(c2ccc(Nc3nc4c(-c5ccc[nH]c5=O)cccn4n3)cc2)CC1
201 to 202	CCc1[nH]n(C2CCCC2)c2nc(-c3ccccc3C(F)(F)F)nc(=O)c1-2
197 to 198	CS(=O)(=O)c1nccc(-c2c(-c3ccc(F)cc3)nc3sccn23)n1
177 to 181	CS(=O)(=O)c1nccc(-n2ncc3ccccc32)n1
165	CS(=O)(=O)N1CCN([C@@H](CNS(=O)(=O)c2ccc(OCc3ccccc3)cc2)C(=O)NO)CC1
155 to 156	CCCCOc1c(CN2C(=O)c3ccccc3C2=O)n(CC(C)(C)C)c(=O)c2cc(F)ccc12
> 300	COc1ccccc1Oc1c(Cl)nc(-c2ccoc2)nc1NS(=O)(=O)c1ccc(C(C)(C)C)cc1
163 to 167	CCOc1cc(OC(C)C)ccc1-c1nc(-c2ccc(OC(C)C)cc2O)nc(-c2ccc(OC(C)C)cc2O)n1
193 to 194	O=C(O)C1CCc2c(c3cc(OCc4ccccc4)ccc3n2C(=O)c2ccccc2)C1 (configuration not stated)
134	CCOC(=O)Cc1nn(CC2Nc3cc(C(F)(F)F)ccc3S2)c(=O)c2ccccc12 (configuration not stated)
78 to 84	O=C(O)Cc1ccc(OCCNC(=O)C2Cc3ccccc3N2S(=O)(=O)c2ccc(-c3cc(F)ccc3Cl)cc2)cc1 (configuration not stated)
157	O=c1ccc2c(-c3ccccc3)cc(N3CCN(Cc4ccccc4)CC3)n2cc1
163 to 170	CC(C)C1(C)N=C(c2ncc(C3OCC(C)(C)CO3)cc2C(=O)O)NC1=O (configuration not stated)
